Test results taken from PMC11546786, “Designing Analogs of SAAP-148 with Enhanced Antimicrobial and Anti-LPS Activities” (International Journal of Molecular Sciences, 2024).
Ends that are not written are not given here.

Tests used:
[1] = system: Gram-positive bacteria (S. aureus, S. epidermidis); assay: Geometric mean of MICs against Gram-positive bacteria; format: cell-based; parameters: unit not given here
Experimental: (§1) The antibacterial activities of the peptides against […] were evaluated using a modified version of the Clinical Laboratory and Standards Institute (CLSI) broth microdilution method, as previously described. Briefly, the bacteria were cultured in liquid LB medium (comprising 10 g/L tryptone, 5 g/L yeast extract, and 10 g/L NaCl) at 37 °C until reaching mid-log phase. Subsequently, the bacterial concentration was adjusted to 1 × 10^6 colony-forming units (CFU)/mL. The peptides were then diluted serially with phosphate-buffered saline (PBS), followed by the addition of 50 μL of the diluted peptides to 50 μL of the bacterial suspension in a 96-well plate (Corning Inc., Lowell, MA, USA). After incubating at 37 °C for 18 to 20 h, the absorbance of each well was measured using a multi-well microplate reader (SpectraMax M5; Molecular Devices, Sunnyvale, CA, USA) at 600 nm.

five bacterial strains = assay: MICs against all five bacterial strains (geometric mean, range); format: cell-based; parameters: unit not given here; conditions: geometric mean of MICs against all five bacterial strains
Experimental: as §1

[2] = system: Gram-negative bacteria (E. coli, P. aeruginosa, K. pneumoniae); assay: Geometric mean of MICs against Gram-negative bacteria; format: cell-based; parameters: unit not given here
Experimental: as §1

[3] = CD spectra, secondary structure by BeStSel; format: physicochemical; conditions: 30 μM SDS as printed, 100 μM peptide, 25 °C
Experimental: CD spectra (Figure S1) were acquired using a JASCO J-1500 spectropolarimeter (JASCO Inc., Easton, MD, USA) in 0.1 cm pathlength cells under nitrogen at 25 °C. The spectra were recorded in the range of 190 to 250 nm at a peptide concentration of 100 μM in SDS. Secondary structure was determined using the BeStSel server. Hydropathicity, mean relative hydrophobic moment, and charge of peptides were predicted using the HeliQuest (https://heliquest.ipmc.cnrs.fr/ (accessed on 12 March 2024)). The 3D structure of SAAP-148 and its analogues (Figure S2) was predicted using PEP-FOLD4 servers (https://bioserv.rpbs.univ-paris-diderot.fr/services/PEP-FOLD4/ (accessed on 19 June 2024)).

[4] = system: Pseudomonas aeruginosa (1.2421); format: cell-based
Source text: (§2) The LL-37, SAAP-148 and its analogues peptides were synthesized according to the standard Fmoc procedure. The Fmoc-protected resin and monomers are first treated with a basic solvent (piperidine) to remove the amino protecting groups. The carboxyl group of the next amino acid is activated by an activator. The activated monomer reacts with the free amino group to form a peptide bond. These two steps are repeated in a cycle until the synthesis is complete. After synthesis, the peptide is eluted from the column and purified by reverse-phase semipreparative high-performance liquid chromatography as detailed in Table 1. The peptides were dissolved in PBS to create a 1000 μmol/L stock solution for subsequent use. The purity of the synthetic peptide exceeded 95%. Blood samples from healthy donors were obtained from the Fifth Medical Center of Chinese PLA General Hospital (Beijing, China). Human normal lung epithelial cells (BEAS-2B) and mouse mononuclear macrophages cells (RAW 264.7) were sourced from Beyotime Biotechnology (Beijing, China), along with the Enhanced Cell Counting Kit-8 (CCK-8) and nitric oxide detection kit. RPMI-1640 and DMEM were procured from Merck (Darmstadt, Germany), while FBS was obtained from ExCell Bio (Shanghai, China). LPS-B5 (from E. coli 055:B5) was procured from Invivogen (Toulouse, France). Five bacterial strains, including Escherichia coli (1.8732), Pseudomonas aeruginosa (1.2421), Klebsiella pneumonia (1.1736) as Gram-negative bacteria, and Staphylococcus aureus (1.8721) and Staphylococcus epidermidis (1.4260) as Gram-positive bacteria, were procured from the China General Microbiological Culture Collection Centre (CGMCC) (Beijing, China).
as §1

[5] = system: Staphylococcus epidermidis (1.4260); format: cell-based
Source text: as §2, §1

[6] = system: Escherichia coli (1.8732); format: cell-based
Source text: as §2, §1

[7] = system: Staphylococcus aureus (1.8721); format: cell-based
Source text: as §2, §1

[8] = Reversed-phase HPLC retention time as measure of peptide hydrophobicity; format: physicochemical; conditions: retention time by reverse-phase HPLC, reflects hydrophobicity difference between analogues
Source text: The physicochemical parameters crucial for the antimicrobial activity of AMPs have been identified, encompassing net charge, helicity, hydrophobicity, and amphipathicity. The hydropathicity, mean relative hydrophobic moment, and charge of peptides were predicted using the HeliQuest (https://heliquest.ipmc.cnrs.fr/ (accessed on 12 March 2024)). Lysine is a hydrophilic amino acid, and its substitution leads to a decrease in the hydrophobicity of the SAAP-148 analogue. The anticipated results are consistent, with the degree of reduction in […] varying depending on the position at which lysine is substituted (Table 2). The amphipathicity of the peptides, as denoted by the μH (mean relative hydrophobic moment), is elaborated on in Table 2. The hydrophobic moment of SAAP-148 analogues was decreased except for SAAP-10, which is on account of the substitution occurring on the18th residue. (Figure 1) The 18th residue of SAAP-148 is glutamine, a polar amino acid residue, located at the junction of the hydrophobic and hydrophilic surfaces of the SAAP-148 α-helix. […] The retention time data determined by reversed-phase high-performance liquid chromatography (RP-HPLC) reflects the hydrophobicity difference between peptide analogues. It is well documented that the formation of a hydrophobic-binding domain due to peptide secondary structure can affect peptide interactions with reversed-phase matrices. This effect was observed particularly for amphipathic α-helical peptides. Given this preferred binding domain, amphipathic α-helical peptides are considerably more retentive than non-amphipathic peptides with the same amino acid composition.
This phenomenon was particularly evident in the case of amphipathic α-helical peptides. […] This discrepancy may be attributed to the lack of a well-defined α-helical structure in SAAP-148 and its analogues (Figure S1).

[9] = system: human erythrocytes versus five bacterial strains; assay: Therapeutic index (MHC/GM of MIC); conditions: for Fold (TI of analogue compared with SAAP-148): TI change relative to SAAP-148; for TI (MHC/MIC): ratio of MHC to geometric mean of MIC (five strains)
Experimental: The geometric mean of minimum inhibitory concentration (MIC) values (GM) from the five strains was calculated to provide a comprehensive assessment of antimicrobial activity, as presented in Table 4.
The therapeutic index (TI) is a widely utilized parameter for indicating the specificity of antimicrobial agents, which is determined by the ratio of MHC (hemolytic activity) and MIC (antimicrobial activity). Consequently, larger TI values signify greater antimicrobial specificity. The TI can be enhanced through one of three mechanisms: increasing antimicrobial activity, reducing hemolytic activity while maintaining antimicrobial activity, or a combination of both augmenting antimicrobial activity and diminishing hemolytic activity.

[10] = system: Klebsiella pneumonia (1.1736); format: cell-based, Klebsiella pneumoniae
Source text: as §2, §1

Substance | GM to G+ [1] | MIC (GM) (five bacterial strains) | GM to G− [2] | Others [3] [%] | Turn [3] [%] | α-Helix [3] [%] | β-Antiparallel [3] [%] | β-Parallel [3] [%] | MIC P. aeruginosa [4] [µM] | MIC S. epidermidis [5] [µM] | MIC E. coli [6] [µM] | MIC S. aureus [7] [µM] | Rt [8] [min] | Fold (TI of analogue compared with SAAP-148) [9] | TI (MHC/MIC) [9] | MIC K. pneumoniae [10] [µM]
LKRVWKRVFKKLKRYWRQLKKPVR-NH2 [SAAP-6] | 6.24 | 3.59 | 2.48 | 0 | 0 | 84.4 | 15.6 | 0 | 1.56 | 1.56 | 1.56 | 25.00 | 9.213 | 15.82 | 1.74 | 6.25
LKRVWKRVKKLLKRYWRQLKKPVR-NH2 [SAAP-5] | 8.85 | 5.44 | 3.94 | 0 | 0 | 100 | 0 | 0 | 6.25 | 3.13 | 1.56 | 25.00 | 10.681 | 10.45 | 1.15 | 6.25
LKRVWKRVFKLLKRKWRQLKKPVR-NH2 [SAAP-8] | 6.24 | 4.74 | 3.93 | 0 | 0 | 100 | 0 | 0 | 1.56 | 1.56 | 1.56 | 25.00 | 13.475 | 6 | 0.66 | 25.00
LKRVWKRVFKLLKRYKRQLKKPVR-NH2 [SAAP-9] | 12.51 | 6.25 | 3.94 | 0 | 0 | 100 | 0 | 0 | 1.56 | 3.13 | 3.13 | 50.00 | 11.941 | 9.09 | 1.00 | 12.50
LKRVKKRVFKLLKRYWRQLKKPVR-NH2 [SAAP-3] | 17.69 | 6.25 | 3.12 | 0 | 0 | 100 | 0 | 0 | 3.13 | 3.13 | 1.56 | 100.00 | 11.208 | 72.73 | 8.00 | 6.25
LKRVWKRVFKLLKRYWRQKKKPVR-NH2 [SAAP-11] | 12.51 | 14.36 | 15.75 | 0 | 0 | 100 | 0 | 0 | 6.25 | 3.13 | 6.25 | 50.00 | 15.926 | 0.45 | 0.05 | 100.00
LKRVWKRVFKLLKRYWRQLKKPKR-NH2 [SAAP-13] | 17.68 | 14.36 | 12.5 | 1.2 | 0 | 98.8 | 0 | 0 | 12.50 | 6.25 | 6.25 | 50.00 | 16.867 | 0.45 | 0.05 | 25.00
